Read-outs that look alike come from different tables or passages of the source.
Legend:
MCF-7 = assay: MTT assay on cancer cell line MCF-7; type: cell-based, Human; settings: for inhibition at 10 µM: Homo sapiens; for In vitro cell inhibition, % of inhibition, MCF-7: at 10µM
Experimental: (§1) Cell culture, growth conditions and treatments. […] Different molecules were dissolved in DMSO and were delivered to cell cultures in complete medium.

CDK-9/Cyclin T1 = CDK-9/Cyclin T1 (Homo sapiens, UniProt P50750); assay: CDK inhibition assay, CDK-9/Cyclin T1 against substrate peptide, 33P-ATP; type: biochemical; settings: at 500 nM
Sequence of CDK-9/Cyclin T1 (P50750 whole entry): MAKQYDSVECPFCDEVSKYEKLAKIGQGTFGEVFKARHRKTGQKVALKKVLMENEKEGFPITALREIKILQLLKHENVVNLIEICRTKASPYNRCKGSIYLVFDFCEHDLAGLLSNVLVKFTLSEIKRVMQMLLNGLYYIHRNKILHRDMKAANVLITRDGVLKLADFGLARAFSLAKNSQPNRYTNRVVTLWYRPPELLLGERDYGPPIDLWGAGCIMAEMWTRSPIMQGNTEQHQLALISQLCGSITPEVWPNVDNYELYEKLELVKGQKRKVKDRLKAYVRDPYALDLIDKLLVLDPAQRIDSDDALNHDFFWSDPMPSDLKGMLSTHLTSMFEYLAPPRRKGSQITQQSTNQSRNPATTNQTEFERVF
Sequence of CDK-9/Cyclin T1 (O60563 whole entry partner): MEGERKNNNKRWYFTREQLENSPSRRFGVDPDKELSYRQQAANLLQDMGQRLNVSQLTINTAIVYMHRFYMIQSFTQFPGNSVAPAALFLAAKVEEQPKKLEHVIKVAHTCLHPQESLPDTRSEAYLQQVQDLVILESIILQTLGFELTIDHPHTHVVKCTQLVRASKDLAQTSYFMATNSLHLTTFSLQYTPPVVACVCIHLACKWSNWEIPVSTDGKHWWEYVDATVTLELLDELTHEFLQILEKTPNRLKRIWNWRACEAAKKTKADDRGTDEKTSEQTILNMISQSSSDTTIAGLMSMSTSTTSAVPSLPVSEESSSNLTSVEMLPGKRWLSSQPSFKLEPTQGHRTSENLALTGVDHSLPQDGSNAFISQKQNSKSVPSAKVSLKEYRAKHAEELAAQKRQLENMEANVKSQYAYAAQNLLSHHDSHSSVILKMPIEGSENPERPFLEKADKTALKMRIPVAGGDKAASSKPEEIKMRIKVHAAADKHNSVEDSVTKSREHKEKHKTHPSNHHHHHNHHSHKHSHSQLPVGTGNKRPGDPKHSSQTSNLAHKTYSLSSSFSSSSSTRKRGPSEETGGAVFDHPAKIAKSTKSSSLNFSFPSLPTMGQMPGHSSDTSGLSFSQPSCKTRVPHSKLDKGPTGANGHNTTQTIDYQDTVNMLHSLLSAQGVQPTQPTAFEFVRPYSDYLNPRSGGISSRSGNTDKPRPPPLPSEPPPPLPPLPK
Experimental: (50-1000 cpm/pmole) and incubated for 30 min at room temperature. Assays were stopped by addition of 5 µl of 0.5 M (3%) orthophosphoric acid and then harvested onto P81 Unifilter plates with a wash buffer of 50 mM orthophosphoric acid.

PC-3 = assay: MTT assay on cancer cell line PC-3; type: cell-based, human; settings: for inhibition at 10 µM: Homo sapiens; for In vitro cell inhibition, % of inhibition, PC-3: at 10µM
Experimental: as §1

HCT-116 = assay: MTT assay on cancer cell line HCT-116; type: cell-based, human; settings: for inhibition at 10 µM: Homo sapiens
Experimental: as §1

SHSY-5Y = assay: MTT assay on cancer cell line SHSY-5Y; type: cell-based, human; settings: for inhibition at 10 µM: Homo sapiens, SH-SY5Y; for In vitro cell inhibition, % of inhibition, SHSY-5Y: at 10µM
Experimental: as §1

CDK-2/cyclin A = CDK-2/cyclin A (Homo sapiens, UniProt P24941); assay: CDK inhibition assay, CDK-2/cyclin A against Histone HI, 33P-ATP; type: biochemical; settings: at 500 nM
Summary of the method: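 CDK-2/cyclin A (5-20 mU) phosphorylating Histone HI (1 mg/ml) in 50 mM Hepes pH 7.5, 100 mM NaCl, 10 mM Mg acetate, 0.02 mM [33P-γ-ATP], 30 min at room temperature. Stopped with orthophosphoric acid, captured on P81 filters for radiometric readout.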

MDA-MB435 = assay: MTT assay on cancer cell line MDA-MB435; type: cell-based, Human; settings: for inhibition at 10 µM: Homo sapiens, MDA-MB-435
Experimental: as §1

[1] = MCF7, MCF-7, Table 9 (for reference), read-out: In vitro cell inhibition, % of inhibition, MCF-7
[2] = MCF7, read-out: inhibition against MCF-7 cell lines
[3] = Table-7, read-out: In vitro CDK9 % of inhibition
[4] = read-out: inhibition against CDK9
[5] = Table 9 (for reference), read-out: In vitro cell inhibition, % of inhibition, PC-3
[6] = at 10µM, Table 9 (for reference), read-out: In vitro cell inhibition, % of inhibition, HCT-116
[7] = SHSY-5Y, Table 9 (for reference), read-out: In vitro cell inhibition, % of inhibition, SHSY-5Y
[8] = read-out: inhibition against SHSY-5Y cell lines
[9] = Table-7, read-out: In vitro CDK2 % of inhibition
[10] = read-out: inhibition against CDK2
[11] = MDA-MB435, at 10µM, Table 9 (for reference), read-out: In vitro cell inhibition, % of inhibition, MDA-MB435
[12] = MCF7, MCF-7, Table 8, read-out: In vitro cell inhibition, % of inhibition, MCF-7
[13] = Table 8, read-out: In vitro cell inhibition, % of inhibition, PC-3
[14] = at 10µM, Table 8, read-out: In vitro cell inhibition, % of inhibition, HCT-116
[15] = SHSY-5Y, Table 8, read-out: In vitro cell inhibition, % of inhibition, SHSY-5Y
[16] = MDA-MB435, at 10µM, Table 8, read-out: In vitro cell inhibition, % of inhibition, MDA-MB435
[17] = Table-6, read-out: In vitro CDK9 % of inhibition
[18] = Table-6, read-out: In vitro CDK2 % of inhibition

Row | SMILES | inhibition at 0.5 µM (CDK-9/Cyclin T1; [3]) | inhibition at 0.5 µM (CDK-9/Cyclin T1; [4]) | inhibition at 0.5 µM (CDK-2/cyclin A; [9]) | inhibition at 0.5 µM (CDK-2/cyclin A; [10]) | inhibition at 10 µM (MCF-7; [1]) | inhibition at 10 µM (MCF-7; [2]) | inhibition at 10 µM (PC-3; [5]) | inhibition at 10 µM (HCT-116; [6]) | inhibition at 10 µM (SHSY-5Y; [7]) | inhibition at 10 µM (SHSY-5Y; [8]) | inhibition at 10 µM (MDA-MB435; [11]) | inhibition at 10 µM (MCF-7; [12]) | inhibition at 10 µM (PC-3; [13]) | inhibition at 10 µM (HCT-116; [14]) | inhibition at 10 µM (SHSY-5Y; [15]) | inhibition at 10 µM (MDA-MB435; [16]) | further results
1 | FC(F)(F)c1ccc(-c2cnc3[nH]cc(-c4ccnc(NCCc5ccccc5)n4)c3c2)cc1 [1B1, N-phenethyl-4-(5-(4-(trifluoromethyl)phenyl)-1H-pyrrolo[2,3-b]pyridin-3-yl)pyrimidin-2-amine] | < 50% | – | < 50% | – | – | > 50% | – | – | – | > 70% | – | > 50% | > 70% | > 50% | > 70% | < 50% | –
2 | FC(F)(F)Oc1ccc(-c2cnc3[nH]cc(-c4ccnc(NC5CCCC5)n4)c3c2)cc1 [1A23, N-cyclopentyl-4-(5-(4-(trifluoromethoxy)phenyl)-1H-pyrrolo[2,3-b]pyridin-3-yl)pyrimidin-2-amine] | – | – | – | – | – | > 50% | – | – | – | > 70% | – | > 50% | > 50% | > 50% | > 70% | < 50% | inhibition at 0.5 µM (CDK-9/Cyclin T1; [17]): > 50%; inhibition at 0.5 µM (CDK-2/cyclin A; [18]): > 70%
3 | FC(F)(F)c1ccc(-c2cnc3[nH]cc(-c4ccnc(NC5CCCCCC5)n4)c3c2)cc1 [1A41, N-cycloheptyl-4-(5-(4-(trifluoromethyl)phenyl)-1H-pyrrolo[2,3-b]pyridin-3-yl)pyrimidin-2-amine] | – | – | – | – | – | > 50% | – | – | – | > 70% | – | > 50% | < 50% | > 50% | > 70% | < 50% | inhibition at 0.5 µM (CDK-9/Cyclin T1; [17]): < 50%; inhibition at 0.5 µM (CDK-2/cyclin A; [18]): < 50%
4 | Nc1nccc(-c2c[nH]c3ncccc23)n1 [Meriolin 1, reference compound] | – | – | – | – | – | – | – | – | – | – | – | – | – | – | – | – | In vitro cell inhibition, % of inhibition, MCF-7 (MCF-7; Table 8): ++ (++ indicates greater than 50% of inhibition (++ >50% of inhibition)); In vitro cell inhibition, % of inhibition, MCF-7 (MCF-7; Table 9 (for reference)): ++ (++ indicates greater than 50% of inhibition (++ > 50% of inhibition)); In vitro CDK9 % of inhibition (CDK-9/Cyclin T1; Table-6): +++ (+++ indicates greater than 70% of inhibition (+++ >70% of inhibition)); In vitro cell inhibition, % of inhibition, PC-3 (PC-3; Table 8): ++ (++ indicates greater than 50% of inhibition (++ >50% of inhibition)); In vitro cell inhibition, % of inhibition, PC-3 (PC-3; Table 9 (for reference)): ++ (++ indicates greater than 50% of inhibition (++ > 50% of inhibition)); In vitro cell inhibition, % of inhibition, HCT-116 (HCT-116; at 10µM, Table 8): ++ (++ indicates greater than 50% of inhibition (++ >50% of inhibition)); In vitro cell inhibition, % of inhibition, HCT-116 (HCT-116; at 10µM, Table 9 (for reference)): ++ (++ indicates greater than 50% of inhibition (++ > 50% of inhibition)); In vitro cell inhibition, % of inhibition, SHSY-5Y (SHSY-5Y; SHSY-5Y, Table 8): +++ (+++ indicates greater than 70% of inhibition (+++ >70% of inhibition)); In vitro cell inhibition, % of inhibition, SHSY-5Y (SHSY-5Y; SHSY-5Y, Table 9 (for reference)): +++ (+++ indicates greater than 70% of inhibition (+++ >70% of inhibition)); In vitro cell inhibition, % of inhibition, MDA-MB435 (MDA-MB435; MDA-MB435, at 10µM, Table 8): ++ (++ indicates greater than 50% of inhibition (++ >50% of inhibition)); In vitro cell inhibition, % of inhibition, MDA-MB435 (MDA-MB435; MDA-MB435, at 10µM, Table 9 (for reference)): ++ (++ indicates greater than 50% of inhibition (++ > 50% of inhibition))
5 | Cc1ccc(-c2cnc3[nH]cc(-c4ccnc(N)n4)c3c2)cc1 [1C6, 4-(5-(p-tolyl)-1H-pyrrolo[2,3-b]pyridin-3-yl)pyrimidin-2-amine] | – | – | – | – | > 70% | > 70% | > 50% | > 70% | > 70% | > 70% | > 70% | – | – | – | – | – | –
6 | Nc1nccc(-c2c[nH]c3ncc(-c4cccc(F)c4)cc23)n1 [1C5, 4-(5-(3-fluorophenyl)-1H-pyrrolo[2,3-b]pyridin-3-yl)pyrimidin-2-amine] | – | – | – | – | > 70% | > 70% | < 50% | > 70% | > 70% | > 70% | > 70% | – | – | – | – | – | –
7 | Nc1nccc(-c2c[nH]c3ncc(-c4ccc(C(F)(F)F)cc4)cc23)n1 [1C1, 4-(5-(4-(trifluoromethyl)phenyl)-1H-pyrrolo[2,3-b]pyridin-3-yl)pyrimidin-2-amine] | – | – | – | – | > 50% | > 50% | > 50% | > 50% | > 50% | – | < 50% | – | – | – | – | – | –
8 | Nc1nccc(-c2c[nH]c3ncc(-c4nccc5ccccc45)cc23)n1 [1C20, 4-(5-(isoquinolin-1-yl)-1H-pyrrolo[2,3-b]pyridin-3-yl)pyrimidin-2-amine] | – | – | – | – | > 50% | > 50% | > 50% | > 70% | > 50% | – | > 50% | – | – | – | – | – | –

More lines, main results first:

Row | inhibition at 0.5 µM (CDK-9/Cyclin T1; [3]) | inhibition at 0.5 µM (CDK-9/Cyclin T1; [4]) | inhibition at 0.5 µM (CDK-2/cyclin A; [9]) | inhibition at 0.5 µM (CDK-2/cyclin A; [10]) | SMILES | inhibition at 10 µM (MCF-7; [1]) | inhibition at 10 µM (MCF-7; [2]) | inhibition at 10 µM (PC-3; [5]) | inhibition at 10 µM (HCT-116; [6]) | inhibition at 10 µM (SHSY-5Y; [7]) | inhibition at 10 µM (SHSY-5Y; [8]) | inhibition at 10 µM (MDA-MB435; [11]) | inhibition at 10 µM (MCF-7; [12]) | inhibition at 10 µM (PC-3; [13]) | inhibition at 10 µM (HCT-116; [14]) | inhibition at 10 µM (SHSY-5Y; [15]) | inhibition at 10 µM (MDA-MB435; [16]) | further results
9 | > 70% | > 70% | > 70% | > 70% | Nc1nccc(-c2c[nH]c3ncc(-c4cccc(C(F)(F)F)c4)cc23)n1 [1C4, 4-(5-(3-(trifluoromethyl)phenyl)-1H-pyrrolo[2,3-b]pyridin-3-yl)pyrimidin-2-amine] | > 70% | > 70% | < 50% | > 70% | > 70% | > 70% | > 70% | – | – | – | – | – | –
10 | > 70% | > 70% | > 70% | > 70% | CCc1ccccc1-c1cnc2[nH]cc(-c3ccnc(N)n3)c2c1 [1C10, 4-(5-(2-ethylphenyl)-1H-pyrrolo[2,3-b]pyridin-3-yl)pyrimidin-2-amine] | > 70% | > 70% | > 70% | > 70% | > 70% | > 70% | > 70% | – | – | – | – | – | –
11 | > 70% | > 70% | > 70% | > 70% | Cc1cccc(-c2cnc3[nH]cc(-c4ccnc(N)n4)c3c2)c1 [1C7, 4-(5-(m-tolyl)-1H-pyrrolo[2,3-b]pyridin-3-yl)pyrimidin-2-amine] | > 50% | > 50% | > 50% | > 70% | > 70% | > 70% | > 70% | – | – | – | – | – | –
12 | – | > 70% | – | > 70% | Clc1ccc(-c2cnc3[nH]cc(-c4ccnc(NC5CC5)n4)c3c2)cc1 [1A12, 4-(5-(4-chlorophenyl)-1H-pyrrolo[2,3-b]pyridin-3-yl)-N-cyclopropylpyrimidin-2-amine] | – | > 70% | – | – | – | > 70% | – | > 70% | > 50% | > 70% | > 70% | > 70% | inhibition at 0.5 µM (CDK-9/Cyclin T1; [17]): > 70%; inhibition at 10 µM (PC-3; read-out: inhibition against PC-3 cell lines): > 50%; inhibition at 10 µM (HCT-116; at 10 µM, read-out: inhibition against HCT-116 cell lines): > 70%; inhibition at 0.5 µM (CDK-2/cyclin A; [18]): > 70%; inhibition at 10 µM (MDA-MB435; at 10 µM, read-out: inhibition against MDAMB-435 cell lines): > 70%
13 | > 70% | > 70% | > 70% | > 70% | CSc1ccccc1-c1cnc2[nH]cc(-c3ccnc(N)n3)c2c1 [1C9, 4-(5-(2-(methylthio)phenyl)-1H-pyrrolo[2,3-b]pyridin-3-yl)pyrimidin-2-amine] | > 70% | > 70% | > 70% | > 50% | > 70% | > 70% | > 70% | – | – | – | – | – | –
14 | > 50% | > 50% | > 50% | > 50% | Fc1ccc(-c2cnc3[nH]cc(-c4ccnc(NCCc5ccccc5)n4)c3c2)cc1 [1B2, 4-(5-(4-fluorophenyl)-1H-pyrrolo[2,3-b]pyridin-3-yl)-N-phenethylpyrimidin-2-amine] | – | – | – | – | – | > 70% | – | > 50% | < 50% | > 50% | > 70% | > 50% | –

Reference: patent EP3383875B1, “3-PYRIMIDINYL PYRROLO [2,3-B] PYRIDINE AS ANTICANCER AGENTS AND THE PROCESS FOR THE PREPARATION THEREOF” (Council Of Scientific & Industrial Research, priority 2015, dated 2017)
